In PubChem BioAssay AID192 (DTP/NCI, 2004) one finds T/C data, which are given here for 19 compounds.

The test has as its system BDF1 mice, B16 melanoma ip, median survival T/C. Briefly: NCI In Vivo Anticancer Drug Screen. Data for tumor model B16 Melanoma (intraperitoneal) in B6D2F1 (BDF1) mice. The note with it: endpoint: median survival time, higher = longer survival. In a few lines: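 Each result divides a survival or tumor-size measurement in the compound-treated group by the same measurement in the vehicle group.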

The mark [1] stands for this setting: dose: 6.25 mg/kg/injection, schedule: Q01DX009 (ip), vehicle: saline with Tween-80.
Where [2] appears, read: dose: 200.0 mg/kg/injection, schedule: Q01DX009 (ip), vehicle: saline.
Where [3] appears, read: dose: 50.0 mg/kg/injection, schedule: Q01DX009 (ip), vehicle: Klucel (hydroxypropylcellulose) (HPC).
Where [4] appears, read: dose: 100.0 mg/kg/injection, schedule: Q01DX009 (ip), vehicle: Klucel (hydroxypropylcellulose) (HPC).
Setting [5] is: dose: 200.0 mg/kg/injection, schedule: Q01DX009 (ip), vehicle: Klucel (hydroxypropylcellulose) (HPC).

Several values for one entry are separate records, joined by “and”; a condition that tells them apart may be missing. Equal entries are not always repeated. Toxic doses and inconclusive results are not listed.

As to `Cc1ccc[c]([Hg][Cl])c1N=Nc1ccccc1`, the T/C was 101 % of control (dose: 0.39 mg/kg/injection, schedule: Q01DX009 (ip), vehicle: saline with Tween-80); 100 % of control (dose: 0.78 mg/kg/injection, schedule: Q01DX009 (ip), vehicle: saline with Tween-80); 97 % of control (dose: 1.56 mg/kg/injection, schedule: Q01DX009 (ip), vehicle: saline with Tween-80); 97 % of control (dose: 3.12 mg/kg/injection, schedule: Q01DX009 (ip), vehicle: saline with Tween-80); 94 % of control under setting [1].

For the compound `CN=C(N)NC`, the T/C (dose: 50.0 mg/kg/injection, schedule: Q01DX009 (ip), vehicle: saline) is 95 % of control; the T/C (dose: 100.0 mg/kg/injection, schedule: Q01DX009 (ip), vehicle: saline) is 98 % of control; the T/C under setting [2] was 104 % of control.

In the case of `CC1(C)CCSC(/C=C/c2ccccc2)=N1`, the T/C under setting [3] is 96 % of control, the T/C under setting [4] is 94 % of control and the T/C under setting [5] is 91 % of control.

Regarding `C[CH2][Pb]([CH2]C)([CH2]C)[O][As](=O)(O)c1ccc(N)cc1`, the T/C (dose: 1.5 mg/kg/injection, schedule: Q01DX009 (ip), vehicle: saline) is 98 % of control and the T/C (dose: 3.0 mg/kg/injection, schedule: Q01DX009 (ip), vehicle: saline) is 96 % of control.

With `CC[C@@H](C)[C@@H]1NC(=O)C(NC(=O)C(CC(C)C)N(C)C(=O)C2CCCN2C(=O)C(C)O)C(C)OC(=O)C(Cc2ccc(OC)cc2)N(C)C(=O)C2CCCN2C(=O)C(CC(C)C)NC(=O)C(C)C(=O)C(C(C)C)OC(=O)C[C@H]1O` (stereo partly drawn), the T/C is, setting by setting: (dose: 80.0 micrograms/kg/injection, schedule: Q01DX009 (ip), vehicle: clinical formulation) 161 % of control; (dose: 160.0 micrograms/kg/injection, schedule: Q01DX009 (ip), vehicle: clinical formulation) 160 % of control; (dose: 160.0 micrograms/kg/injection, schedule: Q01DX009 (ip), vehicle: distilled water + alcohol) 160 % of control; (dose: 320.0 micrograms/kg/injection, schedule: Q01DX009 (ip), vehicle: clinical formulation) 153 % of control; (dose: 320.0 micrograms/kg/injection, schedule: Q01DX009 (ip), vehicle: distilled water + alcohol) 172 % of control.

Turning to `Cc1c(N)nc(C(CC(N)=O)NCC(N)C(N)=O)nc1C(=O)NC(C(=O)NC(C)C(O)C(C)C(=O)NC(C(=O)NCCc1nc(-c2nc(C(=O)NCCC[S+](C)C)cs2)cs1)C(C)O)C(OC1OC(CO)C(O)C(O)C1OC1OC(CO)C(O)C(OC(N)=O)C1O)c1cnc[nH]1` (stereo not drawn), the T/C reads like this: (dose: 3.9 mg/kg/injection, schedule: Q01DX009 (ip), vehicle: saline) 107 % of control; (dose: 7.8 mg/kg/injection, schedule: Q01DX009 (ip), vehicle: saline) 105 % of control; (dose: 15.6 mg/kg/injection, schedule: Q01DX009 (ip), vehicle: saline) 99 % of control.

Turning to `O=c1c(O)c(-c2cc(O)c(O)c(O)c2)oc2cc(O)cc(O)c12`, the T/C is 95 % of control (dose: 25.0 mg/kg/injection, schedule: Q02DX009 (ip), vehicle: saline with Tween-80); 110 % of control (dose: 50.0 mg/kg/injection, schedule: Q02DX009 (ip), vehicle: saline with Tween-80); 105 % of control (dose: 100.0 mg/kg/injection, schedule: Q02DX009 (ip), vehicle: saline with Tween-80).

Regarding `CC(C)CC(NC(=O)c1ccccc1)C(=O)O` (stereo not drawn), the T/C (dose: 100.0 mg/kg/injection, schedule: Q01DX009 (ip), vehicle: saline with Tween-80) was 97 % of control.

Regarding `CCOC(=O)N1Cc2cc3cc(Cl)ccc3nc2C1`, the T/C (dose: 8.0 mg/kg/injection, schedule: Q01DX009 (ip), vehicle: saline with Tween-80) was 103 % of control; the T/C (dose: 16.0 mg/kg/injection, schedule: Q01DX009 (ip), vehicle: saline with Tween-80) was 95 % of control; the T/C (dose: 32.0 mg/kg/injection, schedule: Q01DX009 (ip), vehicle: saline with Tween-80) was 93 % of control; the T/C (dose: 64.0 mg/kg/injection, schedule: Q01DX009 (ip), vehicle: saline with Tween-80) is 112 % of control.

Turning to `Clc1ccc(C(Cl)(Cl)Cl)cc1Cl`, the T/C under setting [3] was 103 % of control; the T/C (dose: 50.0 mg/kg/injection, schedule: Q04DX003 (ip), vehicle: Klucel (hydroxypropylcellulose) (HPC)) is 102 % of control; the T/C under setting [4] is 92 % of control; the T/C (dose: 100.0 mg/kg/injection, schedule: Q04DX003 (ip), vehicle: Klucel (hydroxypropylcellulose) (HPC)) is 102 % of control; the T/C under setting [5] was 96 % of control; the T/C (dose: 200.0 mg/kg/injection, schedule: Q04DX003 (ip), vehicle: Klucel (hydroxypropylcellulose) (HPC)) was 119 % of control.

As for `Cc1ccc(C)c(NC(=O)NC(C)C)c1`, the T/C was 106 % of control under setting [4]; 100 % of control under setting [5]; 103 % of control (dose: 400.0 mg/kg/injection, schedule: Q01DX009 (ip), vehicle: Klucel (hydroxypropylcellulose) (HPC)).

Turning to `CC(C)(C)c1cc(C[P+](c2ccccc2)(c2ccccc2)c2ccccc2)cc(C(C)(C)C)c1O`, the T/C reads like this: (dose: 0.78 mg/kg/injection, schedule: Q01DX009 (ip), vehicle: saline) 111 % of control; (dose: 1.56 mg/kg/injection, schedule: Q01DX009 (ip), vehicle: saline) 109 % of control; (dose: 3.12 mg/kg/injection, schedule: Q01DX009 (ip), vehicle: saline) 104 % of control; (dose: 3.25 mg/kg/injection, schedule: Q04DX003 (ip), vehicle: saline) 94 % of control; (dose: 4.6 mg/kg/injection, schedule: Q01DX009 (ip), vehicle: saline) 86 % of control.

As for `CC(C)C[C@H](NC(=O)[C@@H](O)[C@H](N)Cc1ccc(O)cc1)C(=O)O`, the T/C (dose: 0.05 mg/kg/injection, schedule: Q01DX009 (oral), vehicle: saline) is 97 % of control; the T/C (dose: 0.5 mg/kg/injection, schedule: Q01DX009 (oral), vehicle: saline) was 97 % of control; the T/C (dose: 5.0 mg/kg/injection, schedule: Q01DX009 (oral), vehicle: saline) is 101 % of control.

On to `CCOC(=O)CC1=CCCCC1`, for which the T/C is, setting by setting: (dose: 70.0 mg/kg/injection, schedule: Q01DX009 (ip), vehicle: Klucel (hydroxypropylcellulose) (HPC)) 100 % of control; (dose: 140.0 mg/kg/injection, schedule: Q01DX009 (ip), vehicle: Klucel (hydroxypropylcellulose) (HPC)) 106 % of control; (dose: 280.0 mg/kg/injection, schedule: Q01DX009 (ip), vehicle: Klucel (hydroxypropylcellulose) (HPC)) 100 % of control.

Take `Nc1ncnc2c1c1c(=O)[nH]cnc1n2C1OC(CO)C(O)C1O` (stereo not drawn): the T/C under setting [3] was 86 % of control.

Regarding `CC(=O)Oc1ccc[nH]c1=O`, the T/C runs as follows: (dose: 75.0 mg/kg/injection, schedule: Q01DX009 (ip), vehicle: saline) 91 % of control and 94 % of control; (dose: 150.0 mg/kg/injection, schedule: Q01DX009 (ip), vehicle: saline) 91 % of control; (dose: 200.0 mg/kg/injection, schedule: Q01DX009 (ip), vehicle: saline with Tween-80) 105 % of control; under setting [2], 90 % of control and 95 % of control; (dose: 300.0 mg/kg/injection, schedule: Q01DX009 (ip), vehicle: saline) 104 % of control and 105 % of control; (dose: 400.0 mg/kg/injection, schedule: Q01DX009 (ip), vehicle: saline with Tween-80) 105 % of control. For the same compound, the T/C (dose: 600.0 mg/kg/injection, schedule: Q01DX009 (ip), vehicle: saline with Tween-80) is 106 % of control.

As for `C=C1C(=O)OC2C=C(C)CC3C=C(CCC=C(C)CCC12)C(=O)O3` (stereo not drawn), the T/C by setting is: (dose: 4.0 mg/kg/injection, schedule: Q01DX009 (ip), vehicle: Klucel (hydroxypropylcellulose) (HPC)) 90 % of control; (dose: 8.0 mg/kg/injection, schedule: Q01DX009 (ip), vehicle: Klucel (hydroxypropylcellulose) (HPC)) 105 % of control; (dose: 16.0 mg/kg/injection, schedule: Q01DX009 (ip), vehicle: Klucel (hydroxypropylcellulose) (HPC)) 116 % of control; (dose: 32.0 mg/kg/injection, schedule: Q01DX009 (ip), vehicle: Klucel (hydroxypropylcellulose) (HPC)) 101 % of control.

Consider `CCCCc1ccc2nc(NC(=O)OC)[nH]c2c1`, for which the T/C under setting [1] is 106 % of control; the T/C (dose: 12.5 mg/kg/injection, schedule: Q01DX009 (ip), vehicle: saline with Tween-80) is 112 % of control; the T/C (dose: 25.0 mg/kg/injection, schedule: Q01DX009 (ip), vehicle: saline with Tween-80) is 115 % of control.

On to `O=C(Nc1ccccc1F)Nc1ccccc1Cl`, for which the T/C (dose: 25.0 mg/kg/injection, schedule: Q01DX009 (ip), vehicle: Klucel (hydroxypropylcellulose) (HPC)) is 96 % of control; the T/C under setting [3] is 92 % of control; the T/C under setting [4] is 92 % of control; the T/C under setting [5] is 95 % of control.
